This is an account of results in ChEMBL document CHEMBL1201862, “PubChem BioAssay data set” (2004).

Experiment [1] addresses T1, Histone-lysine N-methyltransferase NSD2 (Homo sapiens, UniProt O96028).
T1 sequence (O96028 whole entry): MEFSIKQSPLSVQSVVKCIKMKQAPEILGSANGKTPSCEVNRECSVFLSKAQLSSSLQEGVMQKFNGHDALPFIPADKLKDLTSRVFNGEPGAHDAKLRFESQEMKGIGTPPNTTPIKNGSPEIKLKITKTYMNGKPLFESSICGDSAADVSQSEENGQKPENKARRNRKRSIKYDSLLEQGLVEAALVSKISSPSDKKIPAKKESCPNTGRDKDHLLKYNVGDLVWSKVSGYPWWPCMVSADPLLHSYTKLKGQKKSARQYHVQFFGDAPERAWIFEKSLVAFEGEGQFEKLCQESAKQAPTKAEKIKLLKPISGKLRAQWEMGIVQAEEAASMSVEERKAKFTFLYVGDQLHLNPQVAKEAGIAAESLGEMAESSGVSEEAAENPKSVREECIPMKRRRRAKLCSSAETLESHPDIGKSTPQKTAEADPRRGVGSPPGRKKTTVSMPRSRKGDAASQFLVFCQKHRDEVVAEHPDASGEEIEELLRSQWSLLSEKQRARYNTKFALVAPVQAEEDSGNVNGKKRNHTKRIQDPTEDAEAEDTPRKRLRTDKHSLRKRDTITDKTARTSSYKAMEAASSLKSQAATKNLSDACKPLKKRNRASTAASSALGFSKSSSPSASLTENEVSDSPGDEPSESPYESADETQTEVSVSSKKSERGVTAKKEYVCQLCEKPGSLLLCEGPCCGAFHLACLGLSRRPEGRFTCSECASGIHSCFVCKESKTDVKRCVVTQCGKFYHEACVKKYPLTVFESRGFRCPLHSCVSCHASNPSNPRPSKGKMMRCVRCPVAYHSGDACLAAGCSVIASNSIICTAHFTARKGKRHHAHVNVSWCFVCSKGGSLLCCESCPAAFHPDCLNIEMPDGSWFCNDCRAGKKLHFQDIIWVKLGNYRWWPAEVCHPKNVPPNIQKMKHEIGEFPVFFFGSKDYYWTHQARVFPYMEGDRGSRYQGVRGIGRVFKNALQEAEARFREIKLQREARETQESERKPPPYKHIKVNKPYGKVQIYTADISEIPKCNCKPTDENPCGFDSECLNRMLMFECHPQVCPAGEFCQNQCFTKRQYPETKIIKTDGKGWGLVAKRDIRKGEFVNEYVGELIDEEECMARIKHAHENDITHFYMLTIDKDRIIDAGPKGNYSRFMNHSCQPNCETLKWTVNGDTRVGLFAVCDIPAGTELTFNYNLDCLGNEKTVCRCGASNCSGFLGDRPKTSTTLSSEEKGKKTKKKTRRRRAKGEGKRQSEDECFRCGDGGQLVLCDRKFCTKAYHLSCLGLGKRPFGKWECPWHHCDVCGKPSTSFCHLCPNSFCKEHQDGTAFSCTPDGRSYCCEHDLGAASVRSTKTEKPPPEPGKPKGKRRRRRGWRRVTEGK
The experiment is classed as biochemical.

A further experiment has as its target T2, Protein RecA (Mycobacterium tuberculosis, UniProt P9WHJ3).
T2 sequence (P9WHJ3 whole entry): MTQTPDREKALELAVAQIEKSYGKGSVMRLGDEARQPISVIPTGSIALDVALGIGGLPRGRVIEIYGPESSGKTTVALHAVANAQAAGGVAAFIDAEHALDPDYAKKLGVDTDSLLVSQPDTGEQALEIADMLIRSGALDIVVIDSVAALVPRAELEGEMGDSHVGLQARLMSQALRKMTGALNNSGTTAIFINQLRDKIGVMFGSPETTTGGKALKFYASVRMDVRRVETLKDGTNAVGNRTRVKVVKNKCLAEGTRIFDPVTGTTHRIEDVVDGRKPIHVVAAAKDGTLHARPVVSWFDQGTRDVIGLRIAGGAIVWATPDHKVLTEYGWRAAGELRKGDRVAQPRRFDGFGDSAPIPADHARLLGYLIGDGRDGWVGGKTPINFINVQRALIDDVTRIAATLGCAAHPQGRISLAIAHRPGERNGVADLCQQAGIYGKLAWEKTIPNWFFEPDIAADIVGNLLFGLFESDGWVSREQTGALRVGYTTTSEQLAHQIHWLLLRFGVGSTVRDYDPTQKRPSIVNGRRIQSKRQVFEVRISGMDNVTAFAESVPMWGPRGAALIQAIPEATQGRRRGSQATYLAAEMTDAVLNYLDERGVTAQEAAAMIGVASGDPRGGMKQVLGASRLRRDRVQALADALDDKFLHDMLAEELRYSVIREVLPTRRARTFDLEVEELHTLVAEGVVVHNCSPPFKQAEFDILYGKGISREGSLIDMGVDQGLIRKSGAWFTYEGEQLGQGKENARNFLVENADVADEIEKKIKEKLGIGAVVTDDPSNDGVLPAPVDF
Kind of experiment: Fluorescence Cell-Free Homogeneous Dose Retest to Identify Inhibitors of RecA-Intein Splicing Activity. [Related pubchem assays (depositor defined):AID2097, AID2223, AID489010, AID492950]. The class given is functional.

Active and inactive are the calls of the source.

On to `C=CCNC1=C(Cl)C(=O)c2ccccc2C1=O`, for which the concentration at half-maximal activity (AC50) in experiment [1] was 19.4 µM (active). At Protein RecA, the half-maximal effective concentration (EC50) was 10.4 µM (active).

Take `CS(=O)(=O)c1ccc2c(c1)SC1=NC(=O)/C(=C/c3ccc(O)c(O)c3)C(=N)N12`: the AC50 in experiment [1] was 1.9 µM (active).

Consider `CCOC(=O)C(C(=O)OCC)c1cc(Br)c2noc3c2c1C(=O)c1ccccc1-3`, for which the AC50 in experiment [1] is > 20 µM (inactive). Besides, at Protein RecA, the EC50 was 0.393 µM (active).

By AC50 is commonly meant the midpoint of the concentration-response curve, whichever way the signal moves. As usually defined, the EC50 is the concentration that produces a half-maximal response.
